From ChEMBL document CHEMBL2413072, “Synthesis and in vitro anticancer studies of novel C-2 arylidene congeners of lantadenes” (2013)

Columns and labels:
Format in all cases: functional
[1] = test system: A549; assay: Growth inhibition of human A549/ATCC cells assessed as cell growth at 10 uM by sulforhodamine B assay; conditions: read-out: Activity
[2] = test system: MOLT-4; assay: Growth inhibition of human MOLT4 cells assessed as growth inhibition at 10 uM by sulforhodamine B assay; conditions: read-out: GI
[3] = test system: NCI-H322M; assay: Growth inhibition of human NCI-H322M cells assessed as growth inhibition at 10 uM by sulforhodamine B assay; conditions: read-out: GI
[4] = test system: UACC-62; assay: Growth inhibition of human UACC62 cells assessed as growth inhibition at 10 uM by sulforhodamine B assay; conditions: read-out: GI
[5] = test system: MDA-MB-468; assay: Growth inhibition of human MDA-MB-468 cells assessed as growth inhibition at 10 uM by sulforhodamine B assay; conditions: read-out: GI
[6] = test system: SF-295; assay: Growth inhibition of human SF295 cells assessed as growth inhibition at 10 uM by sulforhodamine B assay; conditions: read-out: GI
[7] = test system: ACHN; assay: Growth inhibition of human ACHN cells assessed as growth inhibition at 10 uM by sulforhodamine B assay; conditions: read-out: GI
[8] = test system: NCI-H522; assay: Growth inhibition of human NCI-H522 cells assessed as cell growth at 10 uM by sulforhodamine B assay; conditions: read-out: Activity
[9] = test system: OVCAR-3; assay: Growth inhibition of human OVCAR3 cells assessed as growth inhibition at 10 uM by sulforhodamine B assay; conditions: read-out: GI
[10] = test system: SN12C; assay: Growth inhibition of human SN12C cells assessed as growth inhibition at 10 uM by sulforhodamine B assay; conditions: read-out: GI
[11] = test system: HCT-116; assay: Growth inhibition of human HCT116 cells assessed as cell growth at 10 uM by sulforhodamine B assay; conditions: read-out: Activity
[12] = test system: SNB-75; assay: Growth inhibition of human SNB75 cells assessed as cell growth at 10 uM by sulforhodamine B assay; conditions: read-out: Activity
[13] = test system: HCT-15; assay: Growth inhibition of human HCT15 cells assessed as growth inhibition at 10 uM by sulforhodamine B assay; conditions: read-out: GI
[14] = test system: SW-620; assay: Growth inhibition of human SW620 cells assessed as cell growth at 10 uM by sulforhodamine B assay; conditions: read-out: Activity
[15] = Growth inhibition of human HCC2998 cells assessed as cell growth at 10 uM by sulforhodamine B assay; conditions: HCC 2998, read-out: Activity
[16] = test system: LOX IMVI; assay: Growth inhibition of human LOXIMVI cells assessed as growth inhibition at 10 uM by sulforhodamine B assay; conditions: read-out: GI
[17] = test system: OVCAR-4; assay: Growth inhibition of human OVCAR4 cells assessed as cell growth at 10 uM by sulforhodamine B assay; conditions: read-out: Activity
[18] = test system: 786-0; assay: Growth inhibition of human 786-0 cells assessed as growth inhibition at 10 uM by sulforhodamine B assay; conditions: read-out: GI
[19] = test system: HOP-62; assay: Growth inhibition of human HOP62 cells assessed as growth inhibition at 10 uM by sulforhodamine B assay; conditions: read-out: GI
[20] = test system: NCI-H226; assay: Growth inhibition of human NCI-H226 cells assessed as growth inhibition at 10 uM by sulforhodamine B assay; conditions: read-out: GI
[21] = test system: OVCAR-5; assay: Growth inhibition of human OVCAR5 cells assessed as growth inhibition at 10 uM by sulforhodamine B assay; conditions: read-out: GI
[22] = test system: HOP-62; assay: Growth inhibition of human HOP62 cells assessed as cell growth at 10 uM by sulforhodamine B assay; conditions: read-out: Activity
[23] = test system: OVCAR-8; assay: Growth inhibition of human OVCAR8 cells assessed as growth inhibition at 10 uM by sulforhodamine B assay; conditions: read-out: GI
[24] = test system: UACC-257; assay: Growth inhibition of human UACC257 cells assessed as cell growth at 10 uM by sulforhodamine B assay; conditions: read-out: Activity
[25] = test system: UO-31; assay: Growth inhibition of human UO31 cells assessed as cell growth at 10 uM by sulforhodamine B assay; conditions: read-out: Activity
[26] = test system: OVCAR-4; assay: Growth inhibition of human OVCAR4 cells assessed as growth inhibition at 10 uM by sulforhodamine B assay; conditions: read-out: GI
[27] = test system: SK-MEL-28; assay: Growth inhibition of human SK-MEL-28 cells assessed as cell growth at 10 uM by sulforhodamine B assay; conditions: read-out: Activity
[28] = test system: OVCAR-8; assay: Growth inhibition of human OVCAR8 cells assessed as cell growth at 10 uM by sulforhodamine B assay; conditions: read-out: Activity
[29] = test system: MDA-MB-435; assay: Growth inhibition of human MDA-MB-435 cells assessed as cell growth at 10 uM by sulforhodamine B assay; conditions: read-out: Activity
[30] = test system: HL-60(TB); assay: Growth inhibition of human HL-60(TB) cells assessed as cell growth at 10 uM by sulforhodamine B assay; conditions: read-out: Activity
[31] = test system: COLO 205; assay: Growth inhibition of human COLO205 cells assessed as cell growth at 10 uM by sulforhodamine B assay; conditions: read-out: Activity
[32] = test system: K562; assay: Growth inhibition of human K562 cells assessed as growth inhibition at 10 uM by sulforhodamine B assay; conditions: read-out: GI
[33] = test system: SR; assay: Growth inhibition of human SR cells assessed as cell growth at 10 uM by sulforhodamine B assay; conditions: read-out: Activity
[34] = test system: Malme-3M; assay: Growth inhibition of human MALME-3M cells assessed as growth inhibition at 10 uM by sulforhodamine B assay; conditions: read-out: GI
[35] = test system: SK-OV-3; assay: Growth inhibition of human SKOV3 cells assessed as cell growth at 10 uM by sulforhodamine B assay; conditions: read-out: Activity
[36] = Growth inhibition of human NCI-ADR-RES cells assessed as cell growth at 10 uM by sulforhodamine B assay; conditions: read-out: Activity
[37] = test system: Malme-3M; assay: Growth inhibition of human MALME-3M cells assessed as cell growth at 10 uM by sulforhodamine B assay; conditions: read-out: Activity
[38] = test system: RPMI-8226; assay: Growth inhibition of human RPMI8226 cells assessed as cell growth at 10 uM by sulforhodamine B assay; conditions: read-out: Activity
[39] = test system: HCT-15; assay: Growth inhibition of human HCT15 cells assessed as cell growth at 10 uM by sulforhodamine B assay; conditions: read-out: Activity
[40] = test system: A498; assay: Growth inhibition of human A498 cells assessed as cell growth at 10 uM by sulforhodamine B assay; conditions: read-out: Activity
[41] = test system: NCI-H460; assay: Growth inhibition of human NCI-H460 cells assessed as growth inhibition at 10 uM by sulforhodamine B assay; conditions: read-out: GI
[42] = test system: SK-MEL-5; assay: Growth inhibition of human SK-MEL-5 cells assessed as growth inhibition at 10 uM by sulforhodamine B assay; conditions: read-out: GI
[43] = test system: IGROV-1; assay: Growth inhibition of human IGROV1 cells assessed as cell growth at 10 uM by sulforhodamine B assay; conditions: read-out: Activity
[44] = test system: SF-295; assay: Growth inhibition of human SF295 cells assessed as cell growth at 10 uM by sulforhodamine B assay; conditions: read-out: Activity
[45] = test system: MDA-MB-468; assay: Growth inhibition of human MDA-MB-468 cells assessed as cell growth at 10 uM by sulforhodamine B assay; conditions: read-out: Activity
[46] = test system: RPMI-8226; assay: Growth inhibition of human RPMI8226 cells assessed as growth inhibition at 10 uM by sulforhodamine B assay; conditions: read-out: GI
[47] = test system: TK-10; assay: Growth inhibition of human TK10 cells assessed as cell growth at 10 uM by sulforhodamine B assay; conditions: read-out: Activity
[48] = test system: HCT-116; assay: Growth inhibition of human HCT116 cells assessed as growth inhibition at 10 uM by sulforhodamine B assay; conditions: read-out: GI

In the case of COc1cc(/C=C2\C[C@]3(C)[C@H]4CC=C5[C@@H]6CC(C)(C)C[C@@H](O)[C@]6(C(=O)O)CC[C@@]5(C)[C@]4(C)CC[C@H]3C(C)(C)C2=O)ccc1O, the growth at 10 µM [1] is reported as 71.8%, the inhibition of growth at 10 µM [2] is reported as 36.7% and the inhibition of growth at 10 µM [3] is reported as under 10%. The inhibition of growth at 10 µM [4] was 25%, the inhibition of growth at 10 µM [5] was under 10% and the inhibition of growth at 10 µM [6] was 23.5%. The inhibition of growth at 10 µM [7] was 14.4%, the growth at 10 µM [8] was 80.8% and the inhibition of growth at 10 µM [9] was under 10%. For the same molecule, the inhibition of growth at 10 µM [10] was 12.5%, the growth at 10 µM [11] was 84.8% and the growth at 10 µM [12] was 82.1%. It also gave an inhibition of growth at 10 µM [13] of 23.5%, a growth at 10 µM [14] of 108% and a growth at 10 µM [15] of 95.2%. For the same molecule, the inhibition of growth at 10 µM [16] was 11.6%, the growth at 10 µM [17] was 83.8% and the inhibition of growth at 10 µM [18] was under 10%. It also gave an inhibition of growth at 10 µM [19] of under 10%, an inhibition of growth at 10 µM [20] of under 10% and an inhibition of growth at 10 µM [21] of under 10%. For the same molecule, the growth at 10 µM [22] was 96.9%, the inhibition of growth at 10 µM [23] was 20.2% and the growth at 10 µM [24] was 91.4%. The growth at 10 µM [25] was 75.5%, the inhibition of growth at 10 µM [26] was 16.2% and the growth at 10 µM [27] was 90.6%. The growth at 10 µM [28] was 79.8%, the growth at 10 µM [29] was 97.7% and the growth at 10 µM [30] was 71.1%. For the same molecule, the growth at 10 µM [31] was 94.8%, the inhibition of growth at 10 µM [32] was 28.8% and the growth at 10 µM [33] was 87.1%. For the same molecule, the inhibition of growth at 10 µM [34] was 18.9%, the growth at 10 µM [35] was 99.2% and the growth at 10 µM [36] was 92.7%. It also gave a growth at 10 µM [37] of 81.1%, a growth at 10 µM [38] of 59.5% and a growth at 10 µM [39] of 76.5%. The growth at 10 µM [40] was 115%, the inhibition of growth at 10 µM [41] was under 10% and the inhibition of growth at 10 µM [42] was 11.9%. It also gave a growth at 10 µM [43] of 97.8%, a growth at 10 µM [44] of 76.5% and a growth at 10 µM [45] of 103%. The inhibition of growth at 10 µM [46] was 40.5%, the growth at 10 µM [47] was 116% and the inhibition of growth at 10 µM [48] was 15.2%.

CC(C)=CC(=O)O[C@@H]1CC(C)(C)C[C@H]2C3=CC[C@@H]4[C@@]5(C)CCC(=O)C(C)(C)[C@@H]5CC[C@@]4(C)[C@]3(C)CC[C@@]12C(=O)O gave a growth at 10 µM [1] of 22.2%, an inhibition of growth at 10 µM [2] of 63.5% and an inhibition of growth at 10 µM [3] of 46%. The inhibition of growth at 10 µM [4] was 42.2%, the inhibition of growth at 10 µM [5] was 35.8% and the inhibition of growth at 10 µM [7] was 56.1%. The growth at 10 µM [8] was 57.3%, the inhibition of growth at 10 µM [9] was 38.7% and the inhibition of growth at 10 µM [10] was 57.4%. For the same molecule, the growth at 10 µM [11] was 26.6%, the growth at 10 µM [12] was 70% and the inhibition of growth at 10 µM [13] was 81.4%. The growth at 10 µM [14] was 62.7%, the growth at 10 µM [15] was 52.8% and the inhibition of growth at 10 µM [16] was 48.8%. It also gave a growth at 10 µM [17] of 71.3%, an inhibition of growth at 10 µM [18] of 55.9% and an inhibition of growth at 10 µM [19] of 39.8%. For the same molecule, the inhibition of growth at 10 µM [20] was 21.8%, the inhibition of growth at 10 µM [21] was under 10% and the growth at 10 µM [22] was 60.2%. For the same molecule, the inhibition of growth at 10 µM [23] was 44.9%, the growth at 10 µM [24] was 73.9% and the growth at 10 µM [25] was 42%. For the same molecule, the inhibition of growth at 10 µM [26] was 28.7%, the growth at 10 µM [27] was 91.2% and the growth at 10 µM [28] was 55.1%. For the same molecule, the growth at 10 µM [29] was 89.6%, the growth at 10 µM [30] was 10.2% and the growth at 10 µM [31] was 71%. It also gave an inhibition of growth at 10 µM [32] of 55%, a growth at 10 µM [33] of 52.1% and an inhibition of growth at 10 µM [34] of 14.6%. The growth at 10 µM [35] was 95.4%, the growth at 10 µM [36] was 60% and the growth at 10 µM [37] was 85.4%. The growth at 10 µM [38] was 19.6%, the growth at 10 µM [39] was 18.6% and the growth at 10 µM [40] was 101%. The inhibition of growth at 10 µM [41] was 52.9%, the inhibition of growth at 10 µM [42] was 52.1% and the growth at 10 µM [43] was 62.3%. The growth at 10 µM [45] was 64.2%, the inhibition of growth at 10 µM [46] was 80.4% and the growth at 10 µM [47] was 78.1%. The inhibition of growth at 10 µM [48] was 73.4%.
